Two sequences from patent US10578610B2, “Peptide regulators of mitochondrial fusion and methods of use” (priority 2016, dated 2020) can be followed below.

One test deals with T1, human Mfn2 (Homo sapiens, UniProt O95140).
T1 sequence (O95140 1-757): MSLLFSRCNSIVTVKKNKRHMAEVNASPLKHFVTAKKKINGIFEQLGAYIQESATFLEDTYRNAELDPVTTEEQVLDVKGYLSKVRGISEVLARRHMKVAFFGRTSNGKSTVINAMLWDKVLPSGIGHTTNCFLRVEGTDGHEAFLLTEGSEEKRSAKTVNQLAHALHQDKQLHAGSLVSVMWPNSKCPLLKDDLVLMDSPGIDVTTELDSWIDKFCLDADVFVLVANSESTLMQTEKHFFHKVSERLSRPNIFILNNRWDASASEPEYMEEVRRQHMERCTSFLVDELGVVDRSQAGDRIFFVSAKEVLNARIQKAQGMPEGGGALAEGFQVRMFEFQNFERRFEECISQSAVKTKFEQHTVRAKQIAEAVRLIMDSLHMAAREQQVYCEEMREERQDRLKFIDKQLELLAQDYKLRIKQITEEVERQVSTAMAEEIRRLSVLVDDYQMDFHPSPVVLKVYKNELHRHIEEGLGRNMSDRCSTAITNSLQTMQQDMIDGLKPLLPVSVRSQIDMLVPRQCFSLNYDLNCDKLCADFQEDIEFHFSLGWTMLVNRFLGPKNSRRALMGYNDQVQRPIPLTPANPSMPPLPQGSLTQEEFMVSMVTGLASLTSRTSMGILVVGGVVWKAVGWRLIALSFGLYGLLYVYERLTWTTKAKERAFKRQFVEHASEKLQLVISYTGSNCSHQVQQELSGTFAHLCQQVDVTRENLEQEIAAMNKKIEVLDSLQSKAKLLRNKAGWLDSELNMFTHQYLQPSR
The test is described as follows: Mfn2 GTPase assay. Type of test: biochemical. More on the design: purchased OriGene. The note with it: 1 M peptide 15 minutes, then 0.5 mM GTP 1 hour 37° C.; data not shown. On the procedure: Minipeptide effects on Mfn2 GTPase activity were evaluated using a modification of a previously described method (Qi X et al., 2013, J Cell Sci 126:789-802). Briefly, recombinant Mfn2 (100 ng, OriGene, Rockville, Md.) was incubated with […] control TAT peptide, TAT-367-384Gly, or TAT-398-418Gly for 15 minutes prior to addition of 0.5 mM GTP for 1 hour at 37° C. GTPase activity relative to no-peptide control was measured using a colorimetric GTPase assay kit (Novus Biologicals, Littleton, Colo.) following the manufacturer's instructions.

The test system of another test is MEFs. The test is described as follows: Mitochondrial fusion by mixing of organellar contents after PEG-mediated cell fusion. Type of test: cell-based, murine. Conditions: 1 μM for 6 hours. On the procedure: MEFs or neurons were grown on chamber slides and infected with recombinant adenoviri for 48-72 hours unless otherwise indicated. MEFs were stained with MitoTracker Green (200 nM, Invitrogen M7514) and Blue Hoechst (10 mg/ml, Invitrogen H3570), with or without tetramethylrhodamine ethyl ester (TMRE; 200 nM, Invitrogen T-669). Neuronal mitochondria were labeled with adenoviral-expressed mitoGFP plus TMRE, or with adeno-mitoDsRed for time-lapse studies. […] Mitochondrial fusion was measured at 2 and 6 hours after PEG-mediated cell fusion of MEFs treated 48 hours previously with adeno-mitoGFP or adeno-mitoDsRed (Chen et al., 2005, J Biol Chem, 280:26185-26192). Laser confocal fluorescence was excited with 561 nm (MitoTracker Green, GFP, FITC), 637 nm (TMRE, LysoTracker Red, mcherry-Parkin, MitoTracker Orange) or 408 nm (Blue Hoechst) laser diodes. Image analysis—Mitochondrial aspect ratio was calculated using automated edge detection and Image J software (Song et al., 2015, Cell Metab, 21:273-285). Mitochondrial depolarization was calculated as % of green mitochondria visualized on MitoTracker Green and TMRE merged images, expressed as green/(green+yellow mitochondria)×100. Parkin aggregation was calculated as % of cells with mitochondrial clumping of mcherry-Parkin (Song et al., 2015, Cell Metab, 21:273-285). […]

The next test relates to Mfn1/Mfn2 DKO MEFs. The test is described as follows: Confocal localization of FITC-labeled TAT-minipeptides in mitofusin null cells. Type of test: cell-based, murine. Conditions: MEFs completely lacking mitofusins. On the procedure: The above results support the premise that TAT-conjugated Mfn2 minipeptides affect mitochondrial fusion by modulating Mfn1 and Mfn2 conformation according to the dynamic structure model depicted in FIGS. 3A-3C. Additional studies were performed to validate this mechanism of action using the minipeptide-Mfn2 binding assay procedure. Confocal localization of FITC-labeled TAT-minipeptides in WT MEFs and Mfn null MEFs (Mfn1/Mfn2 DKO) was used for analysis of interaction between the minipeptides and mitochondrial mitofusins. Mitochondria were stained with MitoTracker Orange; nucleus was stained with Blue Hoechst. Line-scans were generated for the confocal photographs.
Thus, cell-internalized TAT-conjugated Mfn2 HR1 minipeptides bind specifically to mitochondrial mitofusins.

The next test relates to Opa1 and Drp1. The test is described as follows: Immunoblot analysis of mitochondrial dynamics proteins in MEFs. The note with it: immunoblot 4 hours after application to MEFs; data not shown. The class given is cell-based, murine.

Ends that are not written are not given here.

Regarding “QIAEAVRGIMDSLHMAARGGYGRKKRRQRRR [TAT-367-384Gly]”, the “Mfn2 GTPase activity” value at human Mfn2 is on record as “without altering Mfn2 GTPase activity”. Moreover, in the test with MEFs, the “rate of mitochondrial content mixing (mitochondrial fusion)” value is recorded as “more than doubled”. In the test on Mfn1/Mfn2 DKO MEFs, the “localization of FITC-labeled TAT-peptide to mitochondria” value is listed as “not to MEFs completely lacking mitofusins”. Also, the “abundance of Opa1 and Drp1” value in the test on Opa1 and Drp1 was “without altering Mfn2 GTPase activity or influencing the abundance”.
For the sequence “QDRLKFIDKQGELLAQDYKLRGGYGRKKRRQRRR [TAT-398-418Gly]”, on human Mfn2, the “Mfn2 GTPase activity” value is listed as “without altering Mfn2 GTPase activity”. In the test with MEFs, the “rate of mitochondrial content mixing (mitochondrial fusion)” value is “completely suppressed mitochondrial fusion”. The “localization of FITC-labeled TAT-peptide to mitochondria” value with Mfn1/Mfn2 DKO MEFs was “not to MEFs completely lacking mitofusins”. Moreover, in the test with Opa1 and Drp1, the “abundance of Opa1 and Drp1” value is on record as “without altering Mfn2 GTPase activity or influencing the abundance”.
